Paper PMC10605010, “Immunotechniques for the Group Determination of Macrolide Antibiotics Traces in the Environment Using a Volume-Mediated Sensitivity Enhancement Strategy” (Biosensors, 2023)
In brackets after ≈: the same amount, converted by molar mass. Where two headings read alike, the source gives them in different places.

Key:
[1] = test system: coated anti-BSA-cmoCLA(ae) antibody; assay: Direct competitive antibody-coated ELISA (dcELISA) with HRP-aecAZI tracer; type: binding, rabbit; conditions: 1 h
Description: (§1) To implement these assay formats, the IgG fraction was first isolated from antiserum via the double precipitation method using caprylic acid and ammonium sulfate, described in detail in [22]. The principle of the assays is based on competition between analyte and enzyme-labeled antigen (HRP-aecAZI) for binding to an antibody coated on the plate (dcELISA) or coupled covalently to Sepharose beads. The latter immunosorbent was used in the immunobeads assay (IBA) and immunofiltration assay (IFA).
dcELISA plate format. The direct competitive antibody-coated ELISA format was carried out in accordance with the generally accepted procedure. The antibody coated on polystyrene plates could capture the free analyte from the tested sample and enzyme-labeled hapten in a competitive manner. The sequence of manipulations corresponded to those described for a similar format earlier. The role of the volume ratios between the standard (25–275 µL) and HRP-aecAZI (25–175 µL) on the sensitivity of the assay was studied in this work.
As a result of interactions between antibody and a number of coating antigens, we have identified a preferred hapten and a rational antigen design for the most sensitive and broad-specific detection. Since the aecAZI hapten conjugated to the carrier via a zero-length arm yielded the desired assay performance, we prepared the same design enzyme-labeled hapten for the direct competitive assay format. […] Thus, a direct competitive assay format was optimized and established based on coated anti-BSA-cmoCLA(ae) antibody and HRP-aecAZI × 3 as a tracer.

[2] = test system: Anti-CLA(IgG) coupled to Sepharose beads; assay: Immunobead assay (IBA); type: binding, rabbit; conditions: 2 h
Experimental: Sepharose 4B or Sepharose-CL-2B (Pharmacia, Uppsala, Sweden) were washed with water on a porous glass filter and then squeezed out with a soft press from excess moisture. The washed beads (2 g) were placed in a vial with sodium periodate solution (60 mg in 5 mL H2O) and mixed with a rotary mixer (ELMI Ltd. laboratory equipment, Riga, Latvia) for 45 min. An additional 30 min rotation continued after the addition of ethylene glycol (250 µL). The beads were then washed with water and finally with CBB (pH 9.6) squeezed mildly out. Each of the activated sorbents was placed in a vial for mixing with anti-cmoCLA IgG (10 mg) in 2 mL CBB (pH 9.6) for 48 h at 4 °C. The excess antibody was squeezed out. The beads were then washed with water and placed in a sodium borohydride solution (4 mg/4 mL) for 1 h with occasional shaking. After the final washing with water and PSBT, the resulting immune sorbents were stored at 4 °C in 10 mL of PSBT preserved with Merthiolate (1 mg).
as §1
Immunobead assay (IBA). Standard solution of analyte or tested sample in 1–2 mL PBST were accomplished with HRP-aecAZI and immunosorbents Anti-CLA(IgG)-S4B or Anti-CLA(IgG)-SCL2B taken in optimized concentration/volume and incubated for 0.5–3 h periods at a rotary mixer mixing (15 rpm). The beads were then pelleted using centrifugation (5 min, 3400× g) and suspended to the original volume with PBST. After three washing cycles, the bead pellet was suspended with TMB-substrate mixture (200 μL), and 8 M sulfuric acid (50 μL) was added 30 min later to terminate enzymatic reaction. The intensity of the colored product was measured using a plate reader at 450 nm.

[3] = test system: antibody, immunogen Commercial; design: method as in doi:10.1007/s12161-015-0130-x; conditions: milk; cited from earlier work
[4] = test system: antibody to immunogen BSA-cmoERY(ma); design: method as in PMID 25308648; conditions: milk, cited from earlier work
[5] = test system: antibody to immunogen BSA-cmoERY(ma); conditions: milk; ERY = 100; cited from earlier work
[6] = coating Ab 100 µL, standard/sample 25 µL
[7] = coating Ab 100 µL, standard/sample 50 µL
[8] = coating Ab 100 µL, standard/sample 100 µL
[9] = coating Ab 100 µL, standard/sample 200 µL
[10] = coating Ab 100 µL, standard/sample 275 µL
[11] = coating Ab 200 µL, standard/sample 275 µL
[12] = coating Ab 300 µL, standard/sample 275 µL
[13] = Ab volume 10 µL, standard/sample 1000 µL
[14] = Ab volume 20 µL, standard/sample 2000 µL

## CC[C@H]1OC(=O)[C@H](C)[C@@H](O[C@H]2C[C@@](C)(OC)[C@@H](O)[C@H](C)O2)[C@H](C)[C@@H](O[C@@H]2O[C@H](C)C[C@H](N(C)C)[C@H]2O)[C@](C)(O)C[C@@H](C)C(=O)[C@H](C)[C@@H](O)[C@]1(C)O [ERY, Erythromycin]
[1]; [6]
  IC10 (LOD): 0.04 ng/mL (≈ 0.0545 nM)
  IC20-IC80 (working range): 0.097 to 0.907 ng/mL
  IC50: 0.31 ng/mL (≈ 0.422 nM)
[1]; [7]
  IC10 (LOD): 0.04 ng/mL (≈ 0.0545 nM)
  IC20-IC80 (working range): 0.085 to 0.565 ng/mL
  IC50: 0.23 ng/mL (≈ 0.313 nM)
[1]; [8]
  IC10 (LOD): 0.008 ng/mL (≈ 0.0109 nM)
  IC20-IC80 (working range): 0.037 to 0.400 ng/mL
  IC50: 0.14 ng/mL (≈ 0.191 nM)
[1]; [9]
  IC10 (LOD): 0.011 ng/mL (≈ 0.015 nM)
  IC20-IC80 (working range): 0.029 to 0.253 ng/mL
  IC50: 0.098 ng/mL (≈ 0.134 nM)
[1]; [10]
  IC10 (LOD): 0.024 ng/mL (≈ 0.0327 nM)
  IC20-IC80 (working range): 0.043 to 0.184 ng/mL
  IC50: 0.091 ng/mL (≈ 0.124 nM)
[1]; [11]
  IC10 (LOD): 0.002 ng/mL (≈ 0.00273 nM)
  IC20-IC80 (working range): 0.008 to 0.119 ng/mL
  IC50: 0.034 ng/mL (≈ 0.0463 nM)
[1]; [12]
  IC10 (LOD): 0.006 ng/mL (≈ 0.00818 nM)
  IC20-IC80 (working range): 0.012 to 0.119 ng/mL
  IC50: 0.040 ng/mL (≈ 0.0545 nM)
[2]; [13]
  IC10 (LOD): 0.003 ng/mL (≈ 0.00409 nM)
  IC20-IC80 (working range): 0.006 to 0.056 ng/mL
  IC50: 0.018 ng/mL (≈ 0.0245 nM)
[2]; [14]
  IC10 (LOD): 0.001 ng/mL (≈ 0.00136 nM)
  IC20-IC80 (working range): 0.003 to 0.057 ng/mL
  IC50: 0.012 ng/mL (≈ 0.0164 nM)
[3]
  CR: 100%
  LOD: ni//5 ng/mL
[4]; ERY = 100
  CR: 100%
[4]
  IC50: 0.94 ng/mL (≈ 1.28 nM)
  LOD: 0.3 ng/mL
[5]
  CR: 100%
